Measured values from patent publication US20090149494A1, “THERAPEUTIC USE OF IMIDAZO[1,2-a]PYRIDINE-2-CARBOXAMIDE DERIVATIVES” (SANOFI-AVENTIS, priority 2006, published 2009).

How the values were obtained:
[1] = test system: human NOT receptor; assay: Binding to the human NOT receptor by SPR (Biacore); conditions: immobilized GST-NOT (NOT-FL) and His-Thr-NOT 329-598, 3.75 to 0.1 μM, 4° C.
Protocol: The direct binding between compounds of the invention and the human NOT receptor was evaluated using the SPR (surface plasmon resonance) technique. In this test, the protein is immobilized covalently on the matrix and the test molecule is injected into the chamber containing the sensor chip. The signal is directly proportional to the amount of product bound to the protein. The binding tests were performed in a Biacore S51 machine (Biacore Inc., Piscataway N.J.). The entire GST-NOT protein (NOT-FL) was supplied by Invitrogen (PV3265). The domain for binding to the NOT ligand (His-Thr-NOT 329-598) was expressed and purified as described in Nature 423, 555-560. The two proteins, diluted to a concentration of 20 μg/ml in pH 5.0 acetate buffer containing 5 mM of DTT, were immobilized on a surface of carboxymethyl 5′ dextran (CM5 sensor chip, Biacore Inc.) via amine coupling according to the protocol recommended by Biacore, eluting with an HBS-N buffer (10 mM HEPES, 0.15 M NaCl, 3 mM EDTA, pH 7.4). Approximately 10 000-15 000 resonance units (R^U) of the proteins are captured on the surface of the sensor chip CM5. […] The dissociation was recorded for 5 minutes without any other surface regeneration procedure. […]

[2] = biological target: T1, murine Nurr1 receptor (Mus musculus, UniProt Q06219); assay: In vitro activity on N2A cells (NBRE-luciferase reporter); format: cell-based; conditions: N2A-8NBRE-luciferase cells, 24 hours incubation
T1 construct: endogenously expressing the murine Nurr1 receptor; host or cells: Neuro-2A (N2A) mouse neuroblastoma cells stably transfected with 8NBRE-luciferase
T1 sequence (Q06219 whole entry): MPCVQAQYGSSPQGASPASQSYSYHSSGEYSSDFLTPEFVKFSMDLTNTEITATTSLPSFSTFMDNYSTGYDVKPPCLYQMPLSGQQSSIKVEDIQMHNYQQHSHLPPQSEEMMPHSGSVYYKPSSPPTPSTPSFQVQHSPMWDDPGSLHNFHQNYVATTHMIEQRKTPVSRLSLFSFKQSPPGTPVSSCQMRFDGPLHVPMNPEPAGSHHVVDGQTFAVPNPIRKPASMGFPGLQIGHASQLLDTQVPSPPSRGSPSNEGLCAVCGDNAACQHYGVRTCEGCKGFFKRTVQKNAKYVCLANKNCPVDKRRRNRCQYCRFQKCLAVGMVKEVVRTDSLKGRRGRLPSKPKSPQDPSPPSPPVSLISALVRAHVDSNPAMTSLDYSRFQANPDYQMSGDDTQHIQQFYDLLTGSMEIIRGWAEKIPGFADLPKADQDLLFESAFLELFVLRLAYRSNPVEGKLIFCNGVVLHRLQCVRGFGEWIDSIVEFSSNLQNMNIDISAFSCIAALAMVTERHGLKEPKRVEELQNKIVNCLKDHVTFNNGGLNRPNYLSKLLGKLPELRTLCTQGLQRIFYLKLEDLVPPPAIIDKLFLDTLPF
Protocol: The tests consisted in evaluating the in vitro activity of the compounds of the invention on a cell line (N2A) endogenously expressing the murine Nurr1 receptor and stably transfected with the NOT binding response element (NBRE) coupled to the luciferase reporter gene. The EC50 values are between 0.01 and 1000 nM. The tests were performed according to the procedure described hereinbelow.
The cell line Neuro-2A is obtained from a standard commercial source (ATCC). The clone Neuro-2A was obtained from a spontaneous tumor originating from a strain of albino mice A by R. J Klebe et al. This line Neuro-2A is then stably transfected with 8NBRE-luciferase. The N2A-8NBRE cells are cultured to the point of confluence in 75 cm^2 culture flasks containing DMEM supplemented with 10% fetal calf serum, 4.5 g/L of glucose and 0.4 mg/ml of geneticin. After culturing for one week, the cells are recovered with 0.25% trypsin for 30 seconds and then resuspended in DMEM without phenol red, containing 4.5 g/L of glucose and 10% Hyclone defatted serum, and placed in white, transparent-based 96-well plates. The cells are deposited at a rate of 60 000 per well in 75 μL for 24 hours before adding the products. The products are applied in 25 μL and incubated for a further 24 hours. […] The plates are then measured in a microplate luminescence counter, after having been sealed with an adhesive film. […]

affinity (classified by maximum binding level and kinetic parameters of binding) [1]	EC50 [2]	SMILES
moderate affinity	5.5 nM	O=C(Nc1ccccc1)c1cn2ccccc2n1 [compound 1]
–	17 nM	O=C(Nc1ccc(F)cc1)c1cn2cc(Cl)ccc2n1 [compound 2]
